Data on 18 compounds can be found in PubChem BioAssay AID328 (DTP/NCI, 2004).

Values joined by “and” are separate entries in the source; they are usually repeats but may differ in a detail not shown here. Identical values can stand only once. Inconclusive results and toxic doses are left out.

This test deals with BDF1 mice, P388 leukemia ip, median survival T/C. Nature of the test: NCI In Vivo Anticancer Drug Screen. Data for tumor model P388 Leukemia (intraperitoneal) in B6D2F1 (BDF1) mice. Conditions: endpoint: median survival time, higher = longer survival. In outline: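 Each value expresses how treatment altered survival: treated-mouse outcome over vehicle-mouse outcome, both groups bearing the transplanted tumour.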

The mark [1] stands for this setting: dose: 200.0 mg/kg/injection, schedule: Q04DX003 (ip), vehicle: saline.
The mark [2] stands for this setting: dose: 400.0 mg/kg/injection, schedule: Q04DX003 (ip), vehicle: saline.
[3] abbreviates: dose: 100.0 mg/kg/injection, schedule: Q01DX009 (ip), vehicle: saline with Tween-80.
[4] abbreviates: dose: 200.0 mg/kg/injection, schedule: Q01DX009 (ip), vehicle: saline with Tween-80.
Setting [5] is: dose: 400.0 mg/kg/injection, schedule: Q01DX009 (ip), vehicle: saline with Tween-80.
Setting [6] is: dose: 400.0 mg/kg/injection, schedule: Q04DX003 (ip), vehicle: Klucel (hydroxypropylcellulose) (HPC).
Setting [7] is: dose: 100.0 mg/kg/injection, schedule: Q04DX003 (ip), vehicle: Klucel (hydroxypropylcellulose) (HPC).
Where [8] appears, read: dose: 200.0 mg/kg/injection, schedule: Q04DX003 (ip), vehicle: Klucel (hydroxypropylcellulose) (HPC).
Setting [9] is: dose: 6.25 mg/kg/injection, schedule: Q01DX009 (ip), vehicle: saline with Tween-80.
Where [10] appears, read: dose: 12.5 mg/kg/injection, schedule: Q01DX009 (ip), vehicle: saline with Tween-80.
[11] abbreviates: dose: 50.0 mg/kg/injection, schedule: Q01DX009 (ip), vehicle: saline with Tween-80.
Setting [12] is: dose: 100.0 mg/kg/injection, schedule: Q01DX009 (ip), vehicle: Klucel (hydroxypropylcellulose) (HPC).
The mark [13] stands for this setting: dose: 25.0 mg/kg/injection, schedule: Q01DX009 (ip), vehicle: saline with Tween-80.

Turning to `CC1COCC(C)N1` (stereo not drawn), the T/C (dose: 100.0 mg/kg/injection, schedule: Q04DX003 (ip), vehicle: saline) is 106 % of control; the T/C under setting [1] is 111 % of control; the T/C under setting [2] was 106 % of control.

In the case of `Cc1cc(Cl)c(C)c(Cl)c1Cl`, the T/C by setting is: under setting [3], 90 % of control; under setting [4], 95 % of control; under setting [5], 86 % of control.

For `CCC[N+](C)(C)CCCCOCCCC[N+](C)(C)CCC`, the T/C was 88 % of control (dose: 3.0 mg/kg/injection, schedule: Q01DX009 (ip), vehicle: saline); 100 % of control (dose: 3.0 mg/kg/injection, schedule: Q04DX003 (ip), vehicle: saline); 92 % of control (dose: 6.0 mg/kg/injection, schedule: Q01DX009 (ip), vehicle: saline); 116 % of control (dose: 6.0 mg/kg/injection, schedule: Q04DX003 (ip), vehicle: saline); 113 % of control (dose: 6.25 mg/kg/injection, schedule: Q04DX003 (ip), vehicle: saline); 96 % of control (dose: 12.0 mg/kg/injection, schedule: Q01DX009 (ip), vehicle: saline). Further, the T/C (dose: 12.0 mg/kg/injection, schedule: Q04DX003 (ip), vehicle: saline) is 100 % of control and the T/C (dose: 12.5 mg/kg/injection, schedule: Q04DX003 (ip), vehicle: saline) was 109 % of control.

Consider `N=C(N)SCc1ccccc1`, for which, under “dose: 50.0 mg/kg/injection, schedule: Q01DX001 (ip), vehicle: saline”, the T/C is 98 % of control.

On to `c1ccc2c(c1)Cn1c-2nc2ccccc21`, for which the T/C runs as follows: (dose: 100.0 mg/kg/injection, schedule: Q04DX003 (ip), vehicle: other) 118 % of control; (dose: 200.0 mg/kg/injection, schedule: Q04DX003 (ip), vehicle: other) 109 % of control; (dose: 400.0 mg/kg/injection, schedule: Q04DX003 (ip), vehicle: other) 113 % of control.

For `Cc1cc(NCCCCCCNc2cc(C)nc3ccc(N)cc23)c2cc(N)ccc2n1`, the T/C runs as follows: (dose: 37.5 mg/kg/injection, schedule: Q04DX003 (ip), vehicle: saline) 163 % of control; (dose: 75.0 mg/kg/injection, schedule: Q04DX003 (ip), vehicle: saline) 159 % of control; (dose: 150.0 mg/kg/injection, schedule: Q04DX003 (ip), vehicle: saline) 218 % of control; (dose: 198.0 mg/kg/injection, schedule: Q04DX003 (ip), vehicle: Klucel (hydroxypropylcellulose) (HPC)) 213 % of control; under setting [1], 210 % of control; (dose: 300.0 mg/kg/injection, schedule: Q04DX003 (ip), vehicle: saline) 230 % of control and 213 % of control. Further, the T/C under setting [6] is 254 % of control and the T/C under setting [2] is 250 % of control.

As to `O=C1C(NCCO)=C(N2CC2)C(=O)C(NCCO)=C1N1CC1`, the T/C (dose: 0.18 mg/kg/injection, schedule: Q01DX009 (ip), vehicle: saline) is 248 % of control and 93 % of control; the T/C (dose: 0.37 mg/kg/injection, schedule: Q01DX009 (ip), vehicle: saline) is 275 % of control and 203 % of control; the T/C (dose: 0.75 mg/kg/injection, schedule: Q01DX009 (ip), vehicle: saline) is 194 % of control.

For `CC(Br)C(=O)NC(CC(N)=O)C(=O)O` (stereo not drawn), the T/C was 100 % of control (dose: 50.0 mg/kg/injection, schedule: Q04DX003 (ip), vehicle: saline with Tween-80); 90 % of control (dose: 100.0 mg/kg/injection, schedule: Q04DX003 (ip), vehicle: saline with Tween-80); 100 % of control (dose: 200.0 mg/kg/injection, schedule: Q04DX003 (ip), vehicle: saline with Tween-80).

As to `Cc1cc(C)cc(C(O)(c2cc(C)cc(C)c2)c2cc(C)cc(C)c2)c1`, the T/C is 100 % of control under setting [7], 90 % of control under setting [8] and 110 % of control under setting [6].

`CCOC(=O)/C=C(/C)Sc1cc(O)c2ccccc2c1O`: the T/C runs as follows: (dose: 1.56 mg/kg/injection, schedule: Q01DX009 (ip), vehicle: saline with Tween-80) 101 % of control and 124 % of control; (dose: 3.13 mg/kg/injection, schedule: Q01DX009 (ip), vehicle: saline with Tween-80) 119 % of control and 120 % of control; under setting [9], 124 % of control; under setting [10], 114 % of control.

Consider `CCOC(=O)C1CC1c1ccccc1` (stereo not drawn), for which the T/C is, setting by setting: under setting [11], 110 % of control; under setting [3], 115 % of control and 121 % of control; under setting [4], 119 % of control; under setting [5], 112 % of control.

With `C[C@]12CC[C@H](O)C[C@@]1(O)CC[C@@H]1[C@@H]2CC[C@]2(C)[C@@H](c3ccc(=O)oc3)CC[C@]12O`, the T/C reads like this: (dose: 1.25 mg/kg/injection, schedule: Q01DX009 (ip), vehicle: Klucel (hydroxypropylcellulose) (HPC)) 93 % of control; (dose: 2.5 mg/kg/injection, schedule: Q01DX009 (ip), vehicle: Klucel (hydroxypropylcellulose) (HPC)) 94 % of control; (dose: 5.0 mg/kg/injection, schedule: Q01DX009 (ip), vehicle: Klucel (hydroxypropylcellulose) (HPC)) 99 % of control; (dose: 6.2 mg/kg/injection, schedule: Q01DX010 (ip), vehicle: carboxymethylcellulose (CMC)) 105 % of control; (dose: 10.0 mg/kg/injection, schedule: Q01DX009 (ip), vehicle: Klucel (hydroxypropylcellulose) (HPC)) 101 % of control; (dose: 12.5 mg/kg/injection, schedule: Q01DX010 (ip), vehicle: carboxymethylcellulose (CMC)) 90 % of control. For the same compound, the T/C reads like this: (dose: 20.0 mg/kg/injection, schedule: Q01DX009 (ip), vehicle: Klucel (hydroxypropylcellulose) (HPC)) 105 % of control; (dose: 25.0 mg/kg/injection, schedule: Q01DX010 (ip), vehicle: carboxymethylcellulose (CMC)) 100 % of control.

For the compound `C[C@]12CC[C@H](O)C[C@@H]1CC[C@@H]1[C@@H]2C(=O)C[C@@]2(C)[C@H]1CC[C@]2(O)C(=O)CBr`, the T/C runs as follows: under setting [10], 114 % of control; (dose: 50.0 mg/kg/injection, schedule: Q01DX009 (ip), vehicle: Klucel (hydroxypropylcellulose) (HPC)) 113 % of control; under setting [12], 109 % of control; under setting [7], 100 % of control; under setting [4], 118 % of control; under setting [8], 109 % of control. Also, under setting [6], the T/C is 113 % of control.

In the case of `CSc1ncnc2c1ncn2CO`, the T/C was 110 % of control (dose: 30.0 mg/kg/injection, schedule: Q01DX009 (ip), vehicle: Klucel (hydroxypropylcellulose) (HPC)); 108 % of control (dose: 30.0 mg/kg/injection, schedule: Q01DX009 (ip), vehicle: saline); 150 % of control under setting [12]; 154 % of control under setting [3]; 150 % of control (dose: 120.0 mg/kg/injection, schedule: Q01DX009 (ip), vehicle: Klucel (hydroxypropylcellulose) (HPC)); 90 % of control (dose: 150.0 mg/kg/injection, schedule: Q01DX009 (ip), vehicle: Klucel (hydroxypropylcellulose) (HPC)). Moreover, the T/C (dose: 400.0 mg/kg/injection, schedule: Q04DX003 (ip), vehicle: saline with Tween-80) is 95 % of control.

With `COc1ccc2[nH]c(-c3ccccc3)c(-c3ccccc3)c2c1`, the T/C is 95 % of control under setting [13], 90 % of control under setting [11] and 90 % of control under setting [3].

Turning to `COc1cc2c(cc1OC)C1C(=CCC3c4cc(OC)c(OC)cc4CC[N+]31C)C=C2` (stereo not drawn), the T/C under setting [9] is 95 % of control, the T/C under setting [10] is 104 % of control and the T/C under setting [13] was 116 % of control.

For the compound `CC(=O)OC1CCC2(C)C3CCC4(C)C(=CCC5(C(=O)O)CCC(C)(C)CC45)C3(C)CCC2C1(C)C` (stereo not drawn), the T/C (dose: 0.12 mg/kg/injection, schedule: Q01DX009 (ip), vehicle: alcohol) was 111 % of control; the T/C (dose: 0.25 mg/kg/injection, schedule: Q01DX009 (ip), vehicle: alcohol) is 106 % of control; the T/C (dose: 0.5 mg/kg/injection, schedule: Q01DX009 (ip), vehicle: alcohol) is 116 % of control.

`COc1ccccc1C(=O)c1ccccc1Cc1cccc2ccccc12`: the T/C was 92 % of control under setting [11], 92 % of control under setting [3], 92 % of control under setting [4] and 97 % of control under setting [5].
